The source of these data is patent US4704462A, “Substituted 2,3,3a,6-tetrahydro-6-oxobenzofuran derivative useful as PAF antagonist” (Merck & Co., Inc., priority 1985, dated 1987).

Assay [1] has as its target T1, PAF Receptor (Oryctolagus cuniculus, UniProt G1TEI7).
T1 construct: from tissue
Kind of assay: % Inhibition of PAF Receptor (published bioassay, Table I). Format: binding. From the text:
See. T. Y. Shen et al., Proc. Nat. Acad. Sci., U.S.A., 82, 672 (1985); and S. B. Hwang et al., Biochem., 22, 4756 (1983).
% Inhibition of PAF Receptor by the Compounds of […]

Assay [2] has as its system man. As to conditions: in man, 0.1 μg per site; cited from earlier work.

T1 sequence (G1TEI7 1-342): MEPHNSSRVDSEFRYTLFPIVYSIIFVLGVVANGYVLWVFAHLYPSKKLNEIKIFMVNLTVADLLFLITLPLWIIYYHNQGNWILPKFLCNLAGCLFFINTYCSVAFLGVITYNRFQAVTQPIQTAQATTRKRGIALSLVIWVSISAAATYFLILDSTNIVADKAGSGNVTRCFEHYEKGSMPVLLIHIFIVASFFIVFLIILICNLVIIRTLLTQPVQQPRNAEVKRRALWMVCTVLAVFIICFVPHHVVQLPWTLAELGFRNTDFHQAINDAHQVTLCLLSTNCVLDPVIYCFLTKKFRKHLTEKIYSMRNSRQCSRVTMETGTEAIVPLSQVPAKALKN

Take `C=CCC1=C[C@]2(OCC)C(=CC1=O)O[C@H](c1ccc(OC)c(OC)c1)[C@@H]2C` [(2S,3S,3aR)-5-allyl-2-(3,4-dimethoxyphenyl)-3a-ethoxy-3-methyl-2,3,3a,6-tetrahydro-6-oxo-benzofuran]: in assay [1], the inhibition – broadly, the change of the read-out against control, counted positive when it falls – at 1 µM came out at 45% and at 5 µM the inhibition was 73%.

In assay [1], `C=CCC1=C2OC(c3ccc(OC)c(OC)c3)C(C)C2(OC)C=CC1=O` (centres unmarked) registered an inhibition at 1 µM of 26% and an inhibition at 5 µM of 57%.

`CCCC1=C[C@@]2(OC)C(=CC1=O)O[C@H](c1ccc(OC)c(OC)c1)[C@@H]2C` [(2S,3S,3aS)-2-(3,4-dimethoxyphenyl)-3a-methoxy-3-methyl-5-n-propyl-2,3,3a,6-tetrahydro-6-oxo-benzofuran] had an inhibition at 0.03 µM in assay [1] (Dose 0.03 μM) of 30 to 33%. In assay [1] (Dose 0.1 μM), the inhibition at 0.1 µM lay in the range of 58 to 59%. Moreover, in assay [1], the inhibition at 0.3 µM is 73 to 76%, the inhibition at 1 µM fell in the range of 83 to 89% and the inhibition at 5 µM is 90 to 95%.

On to “1-O-hexadecyl/octadecyl-2-O-acetyl-sn-glycero-3-phosphorylcholine [PAF]”, for which, in assay [2], the “inflammatory response to intradermal PAF” value was “biphasic inflammatory response”.

In assay [1], `CCCC1=C[C@]2(OC)C(=CC1=O)O[C@H](c1ccc(OC)c(OC)c1)[C@@H]2C` (single isomer, unassigned) came in with an inhibition at 1 µM of 31% and an inhibition at 5 µM of 61%.

In assay [1], `C=CCC1=C[C@@]2(OCC)C(=CC1=O)O[C@H](c1ccc(OC)c(OC)c1)[C@@H]2C` [(2S,3S,3aS)-5-allyl-2-(3,4-dimethoxyphenyl)-3a-ethoxy-3-methyl-2,3,3a,6-tetrahydro-6-oxo-benzofuran] displayed an inhibition at 0.3 µM of 42% and an inhibition at 1 µM of 68%.
